One may read the AC50 as the concentration at which the activity in the assay is half-maximal.

The text below walks through data of ChEMBL document CHEMBL1201862, “PubChem BioAssay data set” (2004).

Assay [1] can be described thus: alpha-synuclein stem-loop luciferase translation blockers – H4 neuroglioma cells, luminescence, confirmation (AID 1988). It is filed as functional, cell-based.
Assay [2] is described as follows: Luminescence Cell-Based Dose Response HTS to Identify Inhibitors of 5'UTR Stem-Loop Driven Prion Protein mRNA Translation in H4 Neuroglioblastoma Cells. [Related pubchem assays: 1827 (Project Summary), 1813 (Primary HTS)]. It is filed as functional.
Assay [3] in a line: luciferase reporter signal suppression in cells – H4 neuroglioma cells, luminescence, dose response (AID 1990). It is filed as functional, cell-based.
The nature of assay [4]: microbe, parasite or virus in culture. It is filed as functional. The note with it: Mycobacterium tuberculosis.
Assay [5] can be described thus: viability of uninfected HEp-2 cells – cell-based, HTS, cytotoxicity control for RSV inhibitor project, dose response (AID 2410). It is filed as functional. To be noted: human respiratory syncytial virus.
Assay [6] deals with INS1. Briefly: INS-1E survival protection against cytokine death – cell-based, luminescence, retest, dose response (AID 449756).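 Further: cell death triggered by IL-1 beta plus TNF-alpha plus IFN-gamma mixture; protective hits raise ATP signal compared with cytokine alone wells.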 The class given is functional. The note with it: Rattus norvegicus.
Assay [7] can be described thus: NIH3T3 cell viability loss – ATP luminescence, mouse fibroblasts, counter-screen, dose response (AID 2010).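 Further: cells exposed to compound for about 90 hours before reading.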 The class given is functional, cell-based. Background: A counterscreen serves to expose hits that act by an unwanted route or on another target.
The nature of assay [8]: Trypanosoma cruzi growth suppression in host cells – NIH3T3 host cells, beta-gal luminescence, confirmation (AID 2044).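 Further: intracellular parasites grown in NIH/3T3 mouse fibroblasts as host cells; luminescent beta-galactosidase reporter signal from transgenic T. cruzi replicating inside host cells; inhibitors lower the luminescence signal.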 It is filed as functional, cell-based.
Assay [9] deals with T1, Corticotropin-releasing factor receptor 2/Corticotropin-releasing factor-binding protein (Homo sapiens, UniProt P24387+Q13324).
T1 sequence (Q13324 whole entry): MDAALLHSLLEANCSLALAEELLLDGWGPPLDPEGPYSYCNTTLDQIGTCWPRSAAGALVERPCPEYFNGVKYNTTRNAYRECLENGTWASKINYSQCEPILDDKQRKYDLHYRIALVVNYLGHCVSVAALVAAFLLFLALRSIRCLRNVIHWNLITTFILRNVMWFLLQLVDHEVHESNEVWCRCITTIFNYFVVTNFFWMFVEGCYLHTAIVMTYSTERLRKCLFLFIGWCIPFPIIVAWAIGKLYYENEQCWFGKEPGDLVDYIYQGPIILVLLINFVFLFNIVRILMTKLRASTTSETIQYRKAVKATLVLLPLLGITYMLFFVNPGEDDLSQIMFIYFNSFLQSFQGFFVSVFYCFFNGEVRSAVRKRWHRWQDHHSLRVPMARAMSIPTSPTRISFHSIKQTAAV
T1 sequence (P24387 whole entry): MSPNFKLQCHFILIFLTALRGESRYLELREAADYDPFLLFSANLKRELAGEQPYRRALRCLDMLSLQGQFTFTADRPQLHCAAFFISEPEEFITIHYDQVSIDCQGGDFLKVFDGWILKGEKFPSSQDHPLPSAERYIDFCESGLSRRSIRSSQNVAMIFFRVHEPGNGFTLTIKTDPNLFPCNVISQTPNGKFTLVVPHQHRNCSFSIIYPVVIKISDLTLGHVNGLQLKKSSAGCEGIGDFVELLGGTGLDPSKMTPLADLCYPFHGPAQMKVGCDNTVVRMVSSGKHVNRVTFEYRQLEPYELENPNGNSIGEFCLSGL
As to the kind of experiment: Dose Response confirmation of uHTS hits for small molecule antagonists of the CRF-binding protein and CRF-R2 receptor complex. The class given is functional. The note with it: read-out: IC50_Mean.

In assay [10] the target is T1, Corticotropin-releasing factor receptor 2/Corticotropin-releasing factor-binding protein. As to the kind of experiment: activators of CRF receptor 2 with binding protein – uHTS hits, confirmation (AID 602473). The class given is functional. The note with it: read-out: EC50_Mean.

Calls of active or inactive are those of the source. For most assays here, no stated cut-off is given here; in the data, actives have a measured EC50 and inactives only a lower limit.

In the case of `CCCCn1c2c(c(=O)n(C)c1=O)C(c1ccc(OC)cc1)N1CCCCCC1=N2` (configuration not stated), the results for the EC50 in assay [1], in [2] and in [3] were > 120 µM (not active), > 120 µM (not active) and 39.2 µM (active), respectively.
In the case of `Cc1ccccc1N/N=C/c1c(C)nc2ccccn12`, the results for the CC50 in assay [4] and in [5] were > 40 µM (active) and 33.2 µM (active), respectively.
In the case of `COc1ccccc1N1CC(C)(C)C(=O)N(C(=O)c2ccc(Cl)cc2)C1=S`, the AC50 in assay [6] was > 260 µM (inactive).
As for `COc1ccc(NCc2n[nH]nc2-c2ccccc2)cc1Cl`, in [4], the CC50 was > 40 µM (active).
In the case of `COc1ccc(/C=C/C(=O)Nc2ccc(-n3nncc3-c3ccc(OC)c(OC)c3)cc2)cc1OC`, the EC50 in assay [1] is 16.5 µM (active); in [2], > 120 µM (not active); in assay [3] it was 23.4 µM (active).
On to `O=C(Nc1nn[nH]n1)c1cccc([N+](=O)[O-])c1`, for which the EC50 in assay [1], in [2] and in [3] was > 120 µM (not active) in each case.
`Cc1cc(C(=O)Nc2ccc(CC(=O)O)cc2)c(C)o1`: the EC50 in assay [1] is 18.1 µM (active); in assay [2], 23.1 µM (active); in [3], 12.9 µM (active).
The corresponding values for `Cc1cc(=O)n2c(c1C#N)SC1CCCCC12O` (configuration not stated) are > 120 µM (not active), > 120 µM (not active) and > 120 µM (not active).
Consider `Cc1ccc(/C=N/Nc2ccnc3cc(Cl)ccc23)c(C)c1`, for which the EC50 in [7] was > 60 µM (not active); in assay [8] it was 0.672 µM (active). Also, in assay [6], the AC50 is 6.15 µM (active).
In the case of `O=C1C(C2=NC(c3ccccn3)C3C(=O)N(c4ccc(OC(F)(F)F)cc4)C(=O)C23)=C(O)c2ccccc21` (configuration not stated), in [6], the concentration at half-maximal activity (AC50) was 5.71 µM (active).
Consider `CCCC(=O)c1c(NC(C)C)cc(C)oc1=O`, for which the EC50 in [1], in assay [2] and in assay [3] was > 120 µM (not active) throughout.
With `Cc1ccc2c(c1)cc1c(=O)n(CC(=O)NCc3ccccn3)nc(C)n12`, the EC50 in assay [1], in assay [2] and in [3] was > 120 µM (not active) each time.
As for `COCC(C)n1c(SCc2cc(=O)n3cc(C)ccc3n2)nc2ccccc2c1=O` (configuration not stated), in assay [5], the CC50 is 49.5 µM (active). In addition, the EC50 is > 120 µM (not active) in [1], 12.6 µM (active) in [2] and > 120 µM (not active) in [3].
Take `O=C1NCCCCC1NS(=O)(=O)c1cccc2ccccc12` (configuration not stated): the IC50 in assay [9] is > 47.1 µM (inactive). Also, the EC50 in assay [10] is > 53 µM (inactive).
The corresponding values for `O=C(NCC1CCCO1)C1CCCN1C(=O)NC1CCCCC1` (configuration not stated) are > 47.1 µM (inactive) and > 53 µM (inactive).
